Among the data in the supplement of paper PMC10011410 are total intracellular glutathione and relative cell count values, retold here.

± gives the standard deviation of the averaged measurements.

For one assay, the system named is U-2 OS. Description: total intracellular glutathione (GSH + GSSG) relative to DMSO (% of control); higher = more glutathione. Particulars: 80 µM; 24 h. The method, then: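 Total intracellular glutathione (GSH + GSSG) in U-2 OS cells by GSH/GSSG-Glo after 24 h compound treatment at 5, 10 and 20 uM (some at 40 and 80 uM), as percent of DMSO control. Five technical replicate plates, averaged.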
As to `Cl.Cl.O=C(O)Cn1nnc(-c2ccc(CN(CCCCOc3ccc(CN4CCCC4)cc3)CCc3ccccc3)cc2)n1`, the total intracellular glutathione turned out to be 72.7 ± 5.7.

A further assay has as its system U-2 OS. The assay is described as follows: relative cell count vs DMSO (cell painting) (fraction of DMSO control); higher = more cells remaining (less cytotoxic). Particulars: 0.625 µM; 24 h. A digest of the protocol: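 In this cell painting assay, roughly 1,500 U-2 OS cells per well in 384-well plates were pin-tool treated at 37 °C for 24 h, typically at six 2-fold steps from 20 μM down to 625 nM. Cells were stained with MitoTracker, concanavalin A, phalloidin, wheat germ agglutinin, Hoechst and SYTO 14, imaged on an Opera Phenix, and analysed in CellProfiler with normalization to same-plate DMSO cells. Reported values are means of four replicate plates, with the activity score defined as the Mahalanobis distance from DMSO wells and cell count defined relative to DMSO wells.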
`O=C(Nc1nc(-c2ccccc2)ns1)c1cccs1` came in with a relative cell count of 0.94.
Still for that read-out and setting: the result for `Cc1cc2c(C(C)C)c(O)c(O)c(C=O)c2c(O)c1-c1c(C)cc2c(C(C)C)c(O)c(O)c(C=O)c2c1O` reads 1.09; that for `C=CC(=O)Nc1cc(Nc2nccc(-c3cn(C)c4ccccc34)n2)c(OC)cc1N(C)CCN(C)C`, 0.982; that for `O=S1(=O)C=Cc2ccccc21`, 1.04.
Same read-out and setting: the result for `CC(=O)c1c(O)c(C)c(O)c(Cc2c(O)c3c(c(C(=O)C=Cc4ccccc4)c2O)OC(C)(C)C=C3)c1O` reads 1.07.
On the same count and under the same terms, the result for `CC1(C)CC[C@]2(C(=O)n3ccnc3)CC[C@]3(C)[C@H](C(=O)C=C4[C@@]5(C)C=C(C#N)C(=O)C(C)(C)[C@@H]5CC[C@]43C)[C@@H]2C1` reads 0.329; that for `COC[C@H]1OC(=O)c2coc3c2[C@@]1(C)C1=C(C3=O)[C@@H]2CCC(=O)[C@@]2(C)C[C@H]1OC(C)=O`, 0.905 ± 0.054.
In turn, `c1ccc(Nc2nc(-c3ccccc3)ns2)cc1` registered a relative cell count of 0.915.
The same measure, in the same setting: the result for `C=CC(=O)Nc1cccc(Oc2nc(Nc3ccc(N4CCN(C)CC4)cc3OC)ncc2Cl)c1` reads 1.09; that for `Cn1nnnc1SC1=CS(=O)(=O)c2ccccc21`, 0.936.
Same read-out and setting: the result for `CCC(=O)N1CCN(c2ccc(-n3c(=O)ccc4cnc5ccc(-c6cnc7ccccc7c6)cc5c43)cc2C(F)(F)F)CC1` reads 0.752.
Take `O=C1CC(Nc2ccccc2)C(=O)N1Cc1ccccc1` (stereo unspecified): the relative cell count was found to be 1.01.
On the same count and under the same terms, the value for `C[C@@H]1C[C@H]2O[C@@H]2/C=C\C=C\C(=O)Cc2c(Cl)c(O)cc(O)c2C(=O)O1` was 0.852 ± 0.039; that for `C=CC(=O)Nc1cc2c(Nc3ccc(F)c(Cl)c3)ncnc2cc1OCCCN1CCOCC1` was 0.407; that for `O=C1/C(=C/c2ccc(O)c(Br)c2)CCC/C1=C\c1ccc(O)c(Br)c1` was 1.01.
Still for that read-out and setting: the value for `CNC(=O)Nc1ccc2c(c1)CC[C@@]21OC(=O)N(CC(=O)N(Cc2ccc(F)cc2)[C@@H](C)C(F)(F)F)C1=O` was 1.04.
On the same count and under the same terms, the result for `O=C(O[C@@H]1Cc2c(O)cc(O)cc2O[C@@H]1c1cc(O)c(O)c(O)c1)c1cc(O)c(O)c(O)c1` reads 0.966; that for `O=S1(=O)C=C(Sc2nn(-c3ccccc3)c(=S)s2)c2ccccc21`, 0.875.
For `C=CC(=O)Nc1ccc(CN2C(=O)N(c3cc(OC)cc(OC)c3)Cc3cnc(Nc4ccc(N5CCN(C)CC5)cc4)nc32)cc1`, the relative cell count turned out to be 0.983.
Same read-out and setting: the value for `CCCCCCCCCCCCCCCc1cccc(O)c1C(=O)O` was 1.09; that for `Cl.Cl.O=C(O)Cn1nnc(-c2ccc(CN(CCCCOc3ccc(CN4CCCC4)cc3)CCc3ccccc3)cc2)n1` was 1.2.
On the same count and under the same terms, the result for `COc1cc2ncnc(Nc3ccc(F)c(Cl)c3)c2cc1NC(=O)/C=C/CN1CCCCC1` reads 0.624; that for `Cc1cc(-c2ccccc2)cc(C(=O)NNS(=O)(=O)c2ccccc2)c1F`, 0.914; that for `Cn1c(=O)n(-c2ccc(C(C)(C)C#N)cc2)c2c3cc(-c4cnc5ccccc5c4)ccc3ncc21`, 0.853.
Still for that read-out and setting: the value for `CCCCCC[C@H]1C(=O)O[C@H](C)[C@H](NC(=O)c2cccc(NC=O)c2O)C(=O)O[C@@H](C)[C@@H]1OC(=O)CC(C)C` was 0.8; that for `COC(=O)[C@]1(C)CC[C@]2(C)CC[C@]3(C)C4=CC=C5C(=CC(=O)C(O)=C5C)[C@]4(C)CC[C@@]3(C)[C@@H]2C1` was 0.0681.

The assay is the same for the next values; noted with them: 1.25 µM; 24 h.
Molecule `O=C(Nc1nc(-c2ccccc2)ns1)c1cccs1` gave a relative cell count of 0.902.
Still for that read-out and setting: the value for `Cc1cc2c(C(C)C)c(O)c(O)c(C=O)c2c(O)c1-c1c(C)cc2c(C(C)C)c(O)c(O)c(C=O)c2c1O` was 1.1.
For the molecule `C=CC(=O)Nc1cc(Nc2nccc(-c3cn(C)c4ccccc34)n2)c(OC)cc1N(C)CCN(C)C`, the relative cell count worked out at 0.951.
On the same count and under the same terms, the result for `O=S1(=O)C=Cc2ccccc21` reads 0.994; that for `CC(=O)c1c(O)c(C)c(O)c(Cc2c(O)c3c(c(C(=O)C=Cc4ccccc4)c2O)OC(C)(C)C=C3)c1O`, 1.12.
Same read-out and setting: the value for `CC1(C)CC[C@]2(C(=O)n3ccnc3)CC[C@]3(C)[C@H](C(=O)C=C4[C@@]5(C)C=C(C#N)C(=O)C(C)(C)[C@@H]5CC[C@]43C)[C@@H]2C1` was 0.22; that for `COC[C@H]1OC(=O)c2coc3c2[C@@]1(C)C1=C(C3=O)[C@@H]2CCC(=O)[C@@]2(C)C[C@H]1OC(C)=O` was 0.905 ± 0.038; that for `c1ccc(Nc2nc(-c3ccccc3)ns2)cc1` was 0.89.
On the same count and under the same terms, the value for `C=CC(=O)Nc1cccc(Oc2nc(Nc3ccc(N4CCN(C)CC4)cc3OC)ncc2Cl)c1` was 1.
Consider `Cn1nnnc1SC1=CS(=O)(=O)c2ccccc21`, for which the relative cell count stood at 0.834.
The same measure, in the same setting: the value for `CCC(=O)N1CCN(c2ccc(-n3c(=O)ccc4cnc5ccc(-c6cnc7ccccc7c6)cc5c43)cc2C(F)(F)F)CC1` was 0.716.
Still for that read-out and setting: the result for `O=C1CC(Nc2ccccc2)C(=O)N1Cc1ccccc1` (stereo unspecified) reads 1.03.
Still for that read-out and setting: the result for `C[C@@H]1C[C@H]2O[C@@H]2/C=C\C=C\C(=O)Cc2c(Cl)c(O)cc(O)c2C(=O)O1` reads 0.731 ± 0.047; that for `C=CC(=O)Nc1cc2c(Nc3ccc(F)c(Cl)c3)ncnc2cc1OCCCN1CCOCC1`, 0.133.
As for `O=C1/C(=C/c2ccc(O)c(Br)c2)CCC/C1=C\c1ccc(O)c(Br)c1`, the relative cell count amounted to 1.02.
The same measure, in the same setting: the result for `CNC(=O)Nc1ccc2c(c1)CC[C@@]21OC(=O)N(CC(=O)N(Cc2ccc(F)cc2)[C@@H](C)C(F)(F)F)C1=O` reads 0.976; that for `O=C(O[C@@H]1Cc2c(O)cc(O)cc2O[C@@H]1c1cc(O)c(O)c(O)c1)c1cc(O)c(O)c(O)c1`, 1; that for `O=S1(=O)C=C(Sc2nn(-c3ccccc3)c(=S)s2)c2ccccc21`, 0.647.
Same read-out and setting: the result for `C=CC(=O)Nc1ccc(CN2C(=O)N(c3cc(OC)cc(OC)c3)Cc3cnc(Nc4ccc(N5CCN(C)CC5)cc4)nc32)cc1` reads 0.946; that for `CCCCCCCCCCCCCCCc1cccc(O)c1C(=O)O`, 1.09.
The same measure, in the same setting: the result for `Cl.Cl.O=C(O)Cn1nnc(-c2ccc(CN(CCCCOc3ccc(CN4CCCC4)cc3)CCc3ccccc3)cc2)n1` reads 1.1; that for `COc1cc2ncnc(Nc3ccc(F)c(Cl)c3)c2cc1NC(=O)/C=C/CN1CCCCC1`, 0.681; that for `Cc1cc(-c2ccccc2)cc(C(=O)NNS(=O)(=O)c2ccccc2)c1F`, 0.965.
The molecule `Cn1c(=O)n(-c2ccc(C(C)(C)C#N)cc2)c2c3cc(-c4cnc5ccccc5c4)ccc3ncc21` came in with a relative cell count of 0.819.
Molecule `CCCCCC[C@H]1C(=O)O[C@H](C)[C@H](NC(=O)c2cccc(NC=O)c2O)C(=O)O[C@@H](C)[C@@H]1OC(=O)CC(C)C` gave a relative cell count of 0.81.
On the same count and under the same terms, the result for `COC(=O)[C@]1(C)CC[C@]2(C)CC[C@]3(C)C4=CC=C5C(=CC(=O)C(O)=C5C)[C@]4(C)CC[C@@]3(C)[C@@H]2C1` reads 0.0621.

The same assay, now with this note: 2.5 µM; 24 h.
`O=C(Nc1nc(-c2ccccc2)ns1)c1cccs1` had a relative cell count of 0.915.
`Cc1cc2c(C(C)C)c(O)c(O)c(C=O)c2c(O)c1-c1c(C)cc2c(C(C)C)c(O)c(O)c(C=O)c2c1O` showed a relative cell count of 1.09.
Same read-out and setting: the value for `C=CC(=O)Nc1cc(Nc2nccc(-c3cn(C)c4ccccc34)n2)c(OC)cc1N(C)CCN(C)C` was 0.964; that for `O=S1(=O)C=Cc2ccccc21` was 0.991.
Same read-out and setting: the result for `CC(=O)c1c(O)c(C)c(O)c(Cc2c(O)c3c(c(C(=O)C=Cc4ccccc4)c2O)OC(C)(C)C=C3)c1O` reads 1.14; that for `CC1(C)CC[C@]2(C(=O)n3ccnc3)CC[C@]3(C)[C@H](C(=O)C=C4[C@@]5(C)C=C(C#N)C(=O)C(C)(C)[C@@H]5CC[C@]43C)[C@@H]2C1`, 0.121.
Same read-out and setting: the result for `COC[C@H]1OC(=O)c2coc3c2[C@@]1(C)C1=C(C3=O)[C@@H]2CCC(=O)[C@@]2(C)C[C@H]1OC(C)=O` reads 0.882 ± 0.07.
As to `c1ccc(Nc2nc(-c3ccccc3)ns2)cc1`, the relative cell count was 0.908.
The same measure, in the same setting: the result for `C=CC(=O)Nc1cccc(Oc2nc(Nc3ccc(N4CCN(C)CC4)cc3OC)ncc2Cl)c1` reads 0.976; that for `Cn1nnnc1SC1=CS(=O)(=O)c2ccccc21`, 0.727.
The same measure, in the same setting: the value for `CCC(=O)N1CCN(c2ccc(-n3c(=O)ccc4cnc5ccc(-c6cnc7ccccc7c6)cc5c43)cc2C(F)(F)F)CC1` was 0.68; that for `O=C1CC(Nc2ccccc2)C(=O)N1Cc1ccccc1` (stereo unspecified) was 1.03.
On the same count and under the same terms, the value for `C[C@@H]1C[C@H]2O[C@@H]2/C=C\C=C\C(=O)Cc2c(Cl)c(O)cc(O)c2C(=O)O1` was 0.597 ± 0.06.
Consider `C=CC(=O)Nc1cc2c(Nc3ccc(F)c(Cl)c3)ncnc2cc1OCCCN1CCOCC1`, for which the relative cell count came to 0.0844.
The same measure, in the same setting: the value for `O=C1/C(=C/c2ccc(O)c(Br)c2)CCC/C1=C\c1ccc(O)c(Br)c1` was 0.982.
Consider `CNC(=O)Nc1ccc2c(c1)CC[C@@]21OC(=O)N(CC(=O)N(Cc2ccc(F)cc2)[C@@H](C)C(F)(F)F)C1=O`, for which the relative cell count is 1.04.
Same read-out and setting: the result for `O=C(O[C@@H]1Cc2c(O)cc(O)cc2O[C@@H]1c1cc(O)c(O)c(O)c1)c1cc(O)c(O)c(O)c1` reads 0.981.
Same read-out and setting: the result for `O=S1(=O)C=C(Sc2nn(-c3ccccc3)c(=S)s2)c2ccccc21` reads 0.35.
`C=CC(=O)Nc1ccc(CN2C(=O)N(c3cc(OC)cc(OC)c3)Cc3cnc(Nc4ccc(N5CCN(C)CC5)cc4)nc32)cc1` returned a relative cell count of 0.955.
Molecule `CCCCCCCCCCCCCCCc1cccc(O)c1C(=O)O` came in with a relative cell count of 1.13.
Same read-out and setting: the value for `Cl.Cl.O=C(O)Cn1nnc(-c2ccc(CN(CCCCOc3ccc(CN4CCCC4)cc3)CCc3ccccc3)cc2)n1` was 1.12; that for `COc1cc2ncnc(Nc3ccc(F)c(Cl)c3)c2cc1NC(=O)/C=C/CN1CCCCC1` was 0.586; that for `Cc1cc(-c2ccccc2)cc(C(=O)NNS(=O)(=O)c2ccccc2)c1F` was 0.931.
Same read-out and setting: the value for `Cn1c(=O)n(-c2ccc(C(C)(C)C#N)cc2)c2c3cc(-c4cnc5ccccc5c4)ccc3ncc21` was 0.802.
Same read-out and setting: the value for `CCCCCC[C@H]1C(=O)O[C@H](C)[C@H](NC(=O)c2cccc(NC=O)c2O)C(=O)O[C@@H](C)[C@@H]1OC(=O)CC(C)C` was 0.802; that for `COC(=O)[C@]1(C)CC[C@]2(C)CC[C@]3(C)C4=CC=C5C(=CC(=O)C(O)=C5C)[C@]4(C)CC[C@@]3(C)[C@@H]2C1` was 0.0626.

The same assay, now with this note: 5 µM; 24 h.
With `O=C(Nc1nc(-c2ccccc2)ns1)c1cccs1`, the relative cell count came out at 0.929.
Same read-out and setting: the result for `Cc1cc2c(C(C)C)c(O)c(O)c(C=O)c2c(O)c1-c1c(C)cc2c(C(C)C)c(O)c(O)c(C=O)c2c1O` reads 1.02; that for `C=CC(=O)Nc1cc(Nc2nccc(-c3cn(C)c4ccccc34)n2)c(OC)cc1N(C)CCN(C)C`, 0.897.
Same read-out and setting: the result for `O=S1(=O)C=Cc2ccccc21` reads 1.05.
On the same count and under the same terms, the value for `CC(=O)c1c(O)c(C)c(O)c(Cc2c(O)c3c(c(C(=O)C=Cc4ccccc4)c2O)OC(C)(C)C=C3)c1O` was 1.14.
`CC1(C)CC[C@]2(C(=O)n3ccnc3)CC[C@]3(C)[C@H](C(=O)C=C4[C@@]5(C)C=C(C#N)C(=O)C(C)(C)[C@@H]5CC[C@]43C)[C@@H]2C1`: the relative cell count came out at 0.0924.
Still for that read-out and setting: the value for `COC[C@H]1OC(=O)c2coc3c2[C@@]1(C)C1=C(C3=O)[C@@H]2CCC(=O)[C@@]2(C)C[C@H]1OC(C)=O` was 0.873 ± 0.059.
